{
  "source": "patent US10799486B2",
  "about": "(NORTIC HOLDINGS INC., priority 2016, dated 2020)",
  "origin": "cited, not measured here",
  "key": {"[1]": {"conditions": "oral administration"}, "[2]": {"conditions": "nimodipine-treated subarachnoid hemorrhage (SAH) patients"}},
  "data": [
    {"smiles": "COCCOC(=O)C1=C(C)NC(C)=C(C(=O)OC(C)C)C1c1cccc([N+](=O)[O-])c1", "note": "(stereo not drawn) [nimodipine, isopropyl 2-methoxyethyl 1,4-dihydro-2,6-dimethyl-4-(m-nitrophenyl)-3,5-pyridinedicarboxylate]", "values": [
      {"measurement": "half-life equivalent to earlier elimination rates", "setting": "[1]; man", "result": "1 to 2", "unit": "h"},
      {"measurement": "Cmax in patients with hepatic cirrhosis versus normal", "setting": "[1]; hepatic cirrhosis", "result": "approximately double that in normal"},
      {"measurement": "concentration detected in the cerebrospinal fluid", "setting": "[2]", "result": "≤ 12.5", "unit": "ng/mL"}
    ]}
  ]
}
